Laboratory results reported in publication PMC10447463, “Data-mining unveils structure–property–activity correlation of viral infectivity enhancing self-assembling peptides” (Nature Communications, 2023).
Where “and” joins values, the source holds several entries; their conditions need not be identical. Identical values can stand only once. Like-named read-outs stand apart in the source and are kept apart here.

How the values were obtained:
[1] = β-sheet content by ATR-FT-IR; type: physicochemical
Method in brief: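 First, PNF was ultrafiltered (3 kDa MWCO, 16200 x g, 45 min, 4 °C). Next, filtrate and unfiltered sample were lyophilized and taken up in DMSO. Then fluorescamine was added for 20 min at RT before reading ex 365/em 470 nm. β-sheet: ATR FT-IR of lyophilized 1 mg/mL PNF.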

[2] = system: HIV-1 infection of TZM-bl cells; assay: HIV-1 infectivity enhancement assay, β-galactosidase luminescence; type: cell-based; details: for Log10 Inf. rel. to EF-C: log10 of HIV-1 infection of TZM-bl cells relative to EF-C, Fig S15 source data, asymmetric std dev errors; for Rel-to EFC / n-fold to virus: Fig S8 panels B, D
[3] = type: physicochemical
Method in brief: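 Preformed peptide fibrils (1 mg/mL) mixed with 50 µM ThT in PBS, 15 min at RT, fluorescence ex 440/em 488 nm versus PBS blank, triplicates. Zeta potential: peptides at 1 mg/mL in PBS pH 7.4, aged 1 d at RT, diluted in 1 mM KCl, Smoluchowski from electrophoretic mobility.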

[4] = type: physicochemical; details: STD prep
[5] = Feb2021, 1.3 µM value relative to virus only (0 µM)
[6] = Feb2021, Log10 of infectivity relative to EF-C
[7] = Feb2021, infectivity enhancement relative to EF-C
[8] = Feb2021, n-fold infectivity relative to EF-C
[9] = Feb2021, unrounded values of the 1.3 µM column
[10] = infectivity class (low / medium / high) of each library peptide, main list in c1-c6, same classes repeated in sub-lists of sequences containing the hydrophobicity/charge patterns P+,H0,P+,H0,P0,H0,P0, P+,H0,P0,H0,P0,H0,P0, P+,H0,P0,H0
[11] = ThT fluorescence relative to blank (42.1851851851852 a.u.)
[12] = relative to blank 42.1851851851852 a.u.
[13] = Feb2021, log10 of infectivity relative to EF-C
[14] = infectivity enhancement relative to EF-C
[15] = infectivity n-fold relative to virus alone
[16] = Feb2021, n-fold enhancement relative to EF-C
[17] = Feb2021 run, infectivity n-fold relative to virus alone
[18] = Feb2021 run, log10 of infectivity relative to EF-C
[19] = Feb2021 run, n-fold infectivity relative to EF-C
[20] = infectivity class (low / medium / high) of the peptide in the sequence-pattern analysis, Fig. S22-A4, class limits not given
[21] = Feb2021, figures match the 1.3 µM column
[22] = Feb2021, infectivity relative to virus only
[23] = ThT fluorescence relative to blank, blank = 42.1851851851852

Substance | FTIR ß-sheet content/ % ([1]; ATR-FT-IR) | n-fold to virus (Feb2021) [2, 5] | Log10 of Rel to EFC (Feb2021) [2, 6] | Rel-to EFC (Feb-2021) [2, 8] | Absolute Infectivity / RLU /s (Feb2021) [2, 9] [RLU /s] | infectivity [2, 10] | Log10 Inf. rel. to EF-C [2] | Tht rel to blank (42.1851851851852) [3, 11] | Tht category (> 1.5 to blank = +) ([3]; category 1/0) | Tht rel to blank (42.1851851851852) [3, 12] | TEM: 1= fibrils, 0= aggregates (micelle), 0.5 = aggregates and fibrils, -1 = nothing obersved, STD prep [4] | FTIR ß-sheet content/ % [1] [%] | Rel-to EFC [2, 14] | n-fold to virus [2, 15] | Rel-to EFC (Feb-2021) [2, 16] | n-fold to virus (Feb2021) [2, 17] | Log10 of Rel to EFC (Feb2021) [2, 18] | Rel-to EFC (Feb-2021) [2, 19] | infectivity [2, 20] | other results
CEFEFQFNMWQ [TM140] | 51% and 51.48% | 5.923 | -0.8509 | 0.141 | 2517 | medium | -0.8509 | 6.057 | 1 (ThT. Cat is 1, if Rel. ThT >2) | 6.057 | 1 | – | – | – | – | – | – | – | – | Rel-to EFC (Feb-2021) [2, 7]: 0.141
CEIEIQINMWQ [TM143] | 49.9% | 9.188 | – | 0.2187 | 12066.66667 | medium | -0.6602 | 3.705 | 1 (ThT. Cat is 1, if Rel. ThT >2) | 3.705 | 0.5 | 49.9 | – | – | – | – | – | – | – | Log10 of Rel to EFC (Feb2021) [2, 13]: -0.6602; Rel-to EFC (Feb-2021) ([2]; infectivity enhancement relative to EF-C (=1), Feb2021 run): 0.2187; n-fold to virus (Feb2021) ([2]; infectivity n-fold relative to virus only, Feb2021 run): 9.188; Log10 of Rel to EFC (Feb2021) ([2]; log10 of infectivity relative to EF-C, Feb2021 run): -0.6602
CHLHLQL [CN9] | 49.52% | 4.127 | – | 0.09822 | 2934 | low | -1.008 | – | 1 (ThT. Cat is 1, if Rel. ThT >2) | 3.241 | 0.5 | – | 0.09822 | 4.127 | – | – | – | – | – | Log10 of Rel to EFC (Feb2021) [2, 13]: -1.008
CKFKFQF [BL4] | 47% and 47.43% | 51.79 | 0.09083 | 1.233 | 20066.66667 | – | 0.09083 | 2.251 | 1 (ThT. Cat is 1, if Rel. ThT >2) | 2.251 | 1 | 47.43 | 1.233 | 51.79 | 1.233 | 51.79 | 0.09083 | 1.233 | high | –
CKFKFQFNM [BL3] | 41% | 52.19 | 0.09417 | 1.242 | 28183.33333 | high | 0.09417 | 2.383 | 1 (ThT. Cat is 1, if Rel. ThT >2) | 2.383 | 1 | 41 | 1.242 | 52.19 | 1.242 | 52.19 | 0.09417 | 1.242 | high | –
CKFKFQFNMWQ [BL2] | 47% and 47.05% | 48.74 | 0.06446 | 1.16 | 26320 | high | 0.06446 | 2.427 | 1 (ThT. Cat is 1, if Rel. ThT >2) | 2.427 | 1 | 47.05 | – | – | 1.16 | 48.74 | 0.06446 | 1.16 | high | –
CKFKFQFW [TM72] | 43% | – | -0.05512 | – | – | high | -0.05512 | 1.802 | – | – | – | – | 0.8808 | 37.01 | – | – | – | – | high | Rel-to EFC (Feb-2021) [2, 7]: 0.8808
CKFKQFF [CK15] | 45.41% | – | -2.171 | 0.00675 | – | low | -2.171 | 1.34 | 0 (ThT-inactive (N-Fold <2)) | 1.34 | 0.5 | 45.41 | 0.00675 | 0.2836 | – | 0.2836 | -2.171 | 0.00675 | – | Absolute Infectivity / RLU /s (Feb2021) [2, 21]: 260 RLU /s; Rel-to EFC (Feb-2021) [2, 7]: 0.00675; n-fold to virus (Feb2021) [2, 22]: 0.2836; Tht rel to blank (42.1851851851852) [3, 23]: 1.34
KIKIKIKIYYYY [JR7] | 0% | – | 0.1402 | – | – | – | 0.1402 | 1.259 | – | – | – | – | – | – | – | – | – | – | high | Rel-to EFC (Feb-2021) [2, 7]: 1.381
QCKIKQIINM [CK5] | – | – | -0.4555 | 0.3503 | – | medium | -0.4555 | 23.32 | 1 (ThT. Cat is 1, if Rel. ThT >2) | 23.32 | 1 | – | – | – | 0.3503 | 14.72 | -0.4555 | 0.3503 | – | Absolute Infectivity / RLU /s (Feb2021) [2, 21]: 11186.66667 RLU /s; n-fold to virus (Feb2021) [2, 22]: 14.72; Tht rel to blank (42.1851851851852) [3, 23]: 23.32
RGDCKIKIQINM [TM45] | – | – | -0.6272 | – | – | medium | -0.6272 | 1.835 | 0 (ThT-inactive (N-Fold <2)) | 1.835 | 1 | – | – | – | 0.2359 | 9.913 | -0.6272 | 0.2359 | – | Tht category (> 1.5 to blank = +) ([3]; FigS26): 0 (Tht category (> 1.5 to blank = +))
RGDKIKIQI [MG14] | – | – | -1.805 | – | – | low | -1.805 | 5.578 | 1 (ThT. Cat is 1, if Rel. ThT >2) | 5.578 | 1 | – | – | – | 0.01566 | 0.6579 | -1.805 | 0.01566 | – | Tht category (> 1.5 to blank = +) ([3]; FigS26): 1 (Tht category (> 1.5 to blank = +))
RGDKIKIQIC [MG7/CN1] | – | – | -0.07993 | – | – | – | -0.07993 | 19.76 | 1 (ThT. Cat is 1, if Rel. ThT >2) | 19.76 | 1 | – | – | – | 0.8319 | 34.95 | -0.07993 | 0.8319 | high | Tht category (> 1.5 to blank = +) ([3]; FigS26): 1 (Tht category (> 1.5 to blank = +))
RGDSKIKIQIC [TM113 / RC11] | 39% | – | -0.2249 | – | – | medium | -0.2249 | 13.8 | – | – | – | – | – | – | 0.5957 | – | – | – | – | n-fold to virus (Feb2021) ([2]; Feb2021, infectivity relative to virus only (0 µM)): 25.03 n-fold
